Data: paper PMC4183567, “Cysteine Transport through Excitatory Amino Acid Transporter 3 (EAAT3)” (PLoS ONE, 2014)

T1: EAAT3 (Homo sapiens, UniProt P43005)
T1 sequence (P43005 1-524): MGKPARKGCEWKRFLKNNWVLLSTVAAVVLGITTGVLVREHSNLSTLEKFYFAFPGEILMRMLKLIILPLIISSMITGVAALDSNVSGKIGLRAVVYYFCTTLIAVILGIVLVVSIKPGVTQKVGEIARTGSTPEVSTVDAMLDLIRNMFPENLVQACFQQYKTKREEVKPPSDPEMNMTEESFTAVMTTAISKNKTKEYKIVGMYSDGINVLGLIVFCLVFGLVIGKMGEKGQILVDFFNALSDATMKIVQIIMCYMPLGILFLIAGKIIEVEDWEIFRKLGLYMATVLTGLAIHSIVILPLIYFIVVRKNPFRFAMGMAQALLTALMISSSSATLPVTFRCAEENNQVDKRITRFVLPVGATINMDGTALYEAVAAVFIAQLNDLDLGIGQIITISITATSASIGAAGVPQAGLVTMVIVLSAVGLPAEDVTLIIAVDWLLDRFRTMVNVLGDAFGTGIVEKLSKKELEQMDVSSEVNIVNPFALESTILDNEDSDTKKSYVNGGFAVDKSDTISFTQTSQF

T2: EAAT3 and ASCT1 (Homo sapiens, UniProt P43005)
T2 construct: expressed in transfected cells; host or cells: Xenopus oocytes
T2 sequence (P43005 1-524): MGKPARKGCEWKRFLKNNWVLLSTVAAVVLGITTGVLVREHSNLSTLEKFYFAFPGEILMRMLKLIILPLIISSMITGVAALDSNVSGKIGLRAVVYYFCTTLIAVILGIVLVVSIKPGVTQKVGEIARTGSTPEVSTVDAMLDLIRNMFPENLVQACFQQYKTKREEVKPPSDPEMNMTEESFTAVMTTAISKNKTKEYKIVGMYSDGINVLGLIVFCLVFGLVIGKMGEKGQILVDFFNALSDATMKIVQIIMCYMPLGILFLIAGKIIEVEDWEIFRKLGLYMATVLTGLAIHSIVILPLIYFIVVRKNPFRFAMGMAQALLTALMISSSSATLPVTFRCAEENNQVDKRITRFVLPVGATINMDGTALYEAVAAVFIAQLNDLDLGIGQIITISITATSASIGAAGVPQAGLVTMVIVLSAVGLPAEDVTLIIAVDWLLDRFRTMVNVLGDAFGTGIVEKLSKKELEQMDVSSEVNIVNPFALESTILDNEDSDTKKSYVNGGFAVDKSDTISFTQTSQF

B1: EAAT3 (Homo sapiens) (protein)
chain: MGKPARKGCEWKRFLKNNWVLLSTVAAVVLGITTGVLVREHSNLSTLEKFYFAFPGEILMRMLKLIILPLIISSMITGVAALDSNVSGKIGLRAVVYYFCTTLIAVILGIVLVVSIKPGVTQKVGEIARTGSTPEVSTVDAMLDLIRNMFPENLVQACFQQYKTKREEVKPPSDPEMNMTEESFTAVMTTAISKNKTKEYKIVGMYSDGINVLGLIVFCLVFGLVIGKMGEKGQILVDFFNALSDATMKIVQIIMCYMPLGILFLIAGKIIEVEDWEIFRKLGLYMATVLTGLAIHSIVILPLIYFIVVRKNPFRFAMGMAQALLTALMISSSSATLPVTFRCAEENNQVDKRITRFVLPVGATINMDGTALYEAVAAVFIAQLNDLDLGIGQIITISITATSASIGAAGVPQAGLVTMVIVLSAVGLPAEDVTLIIAVDWLLDRFRTMVNVLGDAFGTGIVEKLSKKELEQMDVSSEVNIVNPFALESTILDNEDSDTKKSYVNGGFAVDKSDTISFTQTSQF
notes: expressed in transfected cells; host or cells: HEK293

Legend:
EAAT3 = biological target: T1, EAAT3; test: Substrate-gated anion (NO3) currents in Xenopus oocytes expressing EAAT3; type: cell-based; conditions: 1 mM substrate, NaNO3, oocytes expressing EAAT3 alone, Figure 7C, n = 6
Description: (§1) mRNA from linearized pOTV-EAAT1, pOTV-EAAT2 and pOTV-EAAT3 was generated as previously described and resuspended in RNAase-free water and used for oocytes injections. Xenopus oocytes where injected with 50 nl of mRNA and incubated at 18°C in 96 mM NaCl, 2 mM KCl, 1.8 mM CaCl2, 1.0 mM MgCl2, 5 mM HEPES, pH 7.4 (ND96) supplemented with 2.5 mM Sodium Pyruvate and Gentamicyn for 2 to 3 days prior to using in electrophysiological recordings and radio-labeled transport experiments.
(§2) Oocytes were held at −60 mV, and currents elicited by 200 ms voltage steps between −120 mV and +60 mV were filtered at 2 kHz (−3dB) and digitalized with a sampling rate of 10 kHz using a Digidata AD/DA converter (Molecular Devices, Sunnyvale, CA, USA). Borosilicate pipets where filled with 3 M KCl and typical resistances where 0.2 to 1 MΩ. Transport currents were determined at −60 mV in a gluconate-based ND96 solution. In order to dialyze internal chloride, oocytes were incubated 12 to 24 hours in the gluconate solution. Anion currents were determined at positive potentials (+60 mV) after exchanging the external solution to NO3-based ND96 (replacement of 96 mM NaCl with 96 mM NaNO3) solution in the absence or in the presence of 1 mM external substrates. In experiments using cysteine as a substrate, all solutions contained 2 mM dithiothreitol (DTT). Data were analyzed with a combination of pClamp 9.2 (Axon Instrument) and Sigma Plot (Jandel Scientific, San Rafael, CA, USA). Whole cell current amplitudes are shown without any subtraction protocol. Current-voltage relationships were constructed by plotting the isochronal current 6 ms after the voltage step versus the membrane potential. All data are given as the mean ± standard deviation of the mean (SDM). For evaluation the statistical relevance, the Student’s t-Test was used with an α of 0.05.

EAAT3 and ASCT1 [1] = test: Release of preloaded [35S]-L-cysteine from Xenopus oocytes co-expressing EAAT3 and ASCT1; type: cell-based, human; conditions: 10 min
Description: mRNA from linearized pOTV-EAAT1, pOTV-EAAT2 and pOTV-EAAT3 was generated as previously described and resuspended in RNAase-free water and used for oocytes injections.
(§3) Oocytes were washed 3 times in ND96 buffer followed by incubation for 10 min with non-radiolabeled substrates as indicated. The supernatant was removed and collected for scintillation counting, while the oocytes were lysed in 1% sodium dodecylsulfate (SDS). The oocytes lysate and supernatant were counted separately by liquid scintillation counting to determine both retained and released radioactivity respectively. Percent of released radioactivity was determined as a function of the released/(retained + released).

EAAT3 and ASCT1 [2] = biological target: T2, EAAT3 and ASCT1; test: Release of preloaded [3H]-L-glutamate from Xenopus oocytes co-expressing EAAT3 and ASCT1; type: cell-based; conditions: 1 mM extracellular substrate, data not shown
Description: as §1, §3

EAAT3 and ASCT1 [3] = test: Substrate-gated NO3 currents in Xenopus oocytes co-expressing EAAT3 and ASCT1; type: cell-based, human; conditions: 1 mM substrate, oocytes co-expressing EAAT3 and ASCT1, n = 4
Description: as §1
as §2, with “In experiments using cysteine as a substrate, all solutions contained 2 mM dithiothreitol (DTT).” left out, “Whole cell current amplitudes are shown without any subtraction protocol. Current-voltage relationships were constructed by plotting the isochronal current 6 ms after the voltage step versus the membrane potential. All data are given as the mean ± standard deviation of the mean (SDM). For evaluation the statistical relevance, the Student’s t-Test was used with an α of 0.05.” left out

EAATs = conditions: very low affinity; cited from earlier work
[4] = substrate: N[C@@H](CCC(=O)O)C(=O)O; test: cells, lysate or membranes; conditions: other: slope normalized to 1 mM glutamate, 0.5 µM to 2 mM glutamate; pH 7.35; 37.0 °C
[5] = substrate: N[C@@H](C[SeH])C(=O)O; test: Two-electrode voltage clamp transport currents in Xenopus oocytes expressing EAAT3; type: cell-based, human; conditions: other: -60 mV, normalized transport current vs concentration, n = 6; pH 7.4; 18.0 °C
Description: as §1
as §2, with “In experiments using cysteine as a substrate, all solutions contained 2 mM dithiothreitol (DTT).” left out, “Whole cell current amplitudes are shown without any subtraction protocol. Current-voltage relationships were constructed by plotting the isochronal current 6 ms after the voltage step versus the membrane potential. All data are given as the mean ± standard deviation of the mean (SDM). For evaluation the statistical relevance, the Student’s t-Test was used with an α of 0.05.” left out

[6] = substrate: N[C@@H](CCC(=O)O)C(=O)O; test: cells, lysate or membranes; type: cell-based, human; conditions: other: similarly transfected HEK293 cells
Description: For radiolabeled transport experiments, 2×10^6 cells were transfected in 1 mL of Opti-Mem (Life Technologies) using 6 µL of Lipofectamine 2000 (Invitrogen) with 1 µg pCMV-EAAT2 or pCMV-EAAT3 DNA and plated at 5×10^4 cells/well in 24 well Costar (Corning) plates with 0.5 mL DMEM culture media prepared as above. Following transfection and plating, cells were cultured 2–3 days prior to [^3H]-L-Glutamate transport experiments.

Molecule | average anion current amplitude at +60 mV (EAAT3) | release of preloaded [35S]-L-cysteine (EAAT3 and ASCT1 [1]; 300 µM extracellular substrate) | release of preloaded [35S]-L-cysteine (EAAT3 and ASCT1 [1]; 1 mM extracellular substrate) | release of loaded [3H]-L-glutamate (EAAT3 and ASCT1 [2]) | macroscopic anion current amplitude at +60 mV (EAAT3 and ASCT1 [3]) | affinity for the transporters (EAATs) | Km [4] | Km [5] | Km [6]
N[C@@H](CO)C(=O)O [serine, L-serine] | 0.60±0.05 µA | 10% | 20% | did not induce significant release | 0.6±0.07 µA | > 1 mM |  |  | 
B1 |  |  |  |  |  |  | 30 µM | 7.14 ± 0.3 µM | 70 µM
